Molecules are shown by their SMILES.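 The compound was tested at five concentrations on cells cultured in 96-well plates, with a 48-hour exposure period. TGI is the concentration that stops growth completely.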

This passage reports TGI results from PubChem BioAssay (NCI).

For one assay, the system named is U251 CNS. In words: NCI anticancer screen, dose series, 48 h.
As to `Cc1ccc(C(=O)O)cc1S(=O)(=O)Nn1cnc2ccc(S(=O)(=O)Nc3ccccc3C(=O)O)cc2c1=O`, the TGI was over 100 µM.

Compound `Cc1ccc(Cl)c2[nH]c(-c3ccccc3)cc(=O)c12` showed a TGI of over 100 µM.

Compound `CN(C)C(=O)O/N=C1/C(c2c(O)[nH]c3ccccc23)=Nc2ccccc21` showed a TGI of 33.9 µM.

Take `O=C1/C(=C/c2ccccc2)N=C2Sc3c(nc[nH]c3=O)N12`: the TGI is over 100 µM.

Compound `COC(=O)c1ccccc1CC1Cc2ccc3c(c2C1=O)CCCC3` (stereo not given) had a TGI of over 100 µM.

`O=C1/C(=C\c2ccccc2)C(NC2CCCCC2)c2ccccc21` (stereo not given) had a TGI of 3.48 µM.

Take `CCOC(=O)C1(C/C=C/CBr)Cc2ccccc2C1=O` (stereo not given): the TGI stood at 14.8 µM.

In the case of `COc1ccc(COCCOCc2nc(C#N)c(N)o2)cc1`, the TGI is over 100 µM.

In turn, `CC1(C)OC(=O)N(c2ccccc2)C12C=Cc1cc([N+](=O)[O-])cc([N+](=O)[O-])c1O2` (stereo not given) displayed a TGI of over 100 µM.

In a further assay the test system is OVCAR-3 ovarian. In words: NCI anticancer screen, dose series, 48 h.
As for `Cc1ccc(C(=O)O)cc1S(=O)(=O)Nn1cnc2ccc(S(=O)(=O)Nc3ccccc3C(=O)O)cc2c1=O`, the TGI is over 100 µM.

The compound `Cc1ccc(Cl)c2[nH]c(-c3ccccc3)cc(=O)c12` yielded a TGI of over 100 µM.

Compound `CN(C)C(=O)O/N=C1/C(c2c(O)[nH]c3ccccc23)=Nc2ccccc21` returned a TGI of 57 µM.

Turning to `O=C1/C(=C/c2ccccc2)N=C2Sc3c(nc[nH]c3=O)N12`, the TGI was over 100 µM.

For `COC(=O)c1ccccc1CC1Cc2ccc3c(c2C1=O)CCCC3` (stereo not given), the TGI is over 100 µM.

`O=C1/C(=C\c2ccccc2)C(NC2CCCCC2)c2ccccc21` (stereo not given) yielded a TGI of 2.51 µM.

The compound `CCOC(=O)C1(C/C=C/CBr)Cc2ccccc2C1=O` (stereo not given) registered a TGI of 4.54 µM.

In turn, `COc1ccc(COCCOCc2nc(C#N)c(N)o2)cc1` registered a TGI of over 100 µM.

The compound `CC1(C)OC(=O)N(c2ccccc2)C12C=Cc1cc([N+](=O)[O-])cc([N+](=O)[O-])c1O2` (stereo not given) showed a TGI of over 100 µM.

For the next assay, the system named is MCF7 breast. Put plainly: NCI anticancer screen, dose series, 48 h.
Consider `Cc1ccc(C(=O)O)cc1S(=O)(=O)Nn1cnc2ccc(S(=O)(=O)Nc3ccccc3C(=O)O)cc2c1=O`, for which the TGI is over 100 µM.

`Cc1ccc(Cl)c2[nH]c(-c3ccccc3)cc(=O)c12` registered a TGI of 34.6 µM.

`CN(C)C(=O)O/N=C1/C(c2c(O)[nH]c3ccccc23)=Nc2ccccc21`: the TGI was over 100 µM.

The compound `O=C1/C(=C/c2ccccc2)N=C2Sc3c(nc[nH]c3=O)N12` gave a TGI of over 100 µM.

`COC(=O)c1ccccc1CC1Cc2ccc3c(c2C1=O)CCCC3` (stereo not given): the TGI was over 100 µM.

`O=C1/C(=C\c2ccccc2)C(NC2CCCCC2)c2ccccc21` (stereo not given) had a TGI of 2.67 µM.

Consider `CCOC(=O)C1(C/C=C/CBr)Cc2ccccc2C1=O` (stereo not given), for which the TGI turned out to be 8.73 µM.

Compound `COc1ccc(COCCOCc2nc(C#N)c(N)o2)cc1` yielded a TGI of over 100 µM.

`CC1(C)OC(=O)N(c2ccccc2)C12C=Cc1cc([N+](=O)[O-])cc([N+](=O)[O-])c1O2` (stereo not given) displayed a TGI of over 100 µM.

The next assay deals with HCT-15 colon. Put plainly: NCI anticancer screen, dose series, 48 h.
The compound `Cc1ccc(C(=O)O)cc1S(=O)(=O)Nn1cnc2ccc(S(=O)(=O)Nc3ccccc3C(=O)O)cc2c1=O` yielded a TGI of over 100 µM.

`Cc1ccc(Cl)c2[nH]c(-c3ccccc3)cc(=O)c12`: the TGI is over 100 µM.

Turning to `CN(C)C(=O)O/N=C1/C(c2c(O)[nH]c3ccccc23)=Nc2ccccc21`, the TGI is over 100 µM.

The compound `O=C1/C(=C/c2ccccc2)N=C2Sc3c(nc[nH]c3=O)N12` registered a TGI of over 100 µM.

Regarding `COC(=O)c1ccccc1CC1Cc2ccc3c(c2C1=O)CCCC3` (stereo not given), the TGI is over 100 µM.

`O=C1/C(=C\c2ccccc2)C(NC2CCCCC2)c2ccccc21` (stereo not given) displayed a TGI of 5.79 µM.

For the compound `CCOC(=O)C1(C/C=C/CBr)Cc2ccccc2C1=O` (stereo not given), the TGI stood at 5.73 µM.

On to `COc1ccc(COCCOCc2nc(C#N)c(N)o2)cc1`, for which the TGI is over 100 µM.

In the case of `CC1(C)OC(=O)N(c2ccccc2)C12C=Cc1cc([N+](=O)[O-])cc([N+](=O)[O-])c1O2` (stereo not given), the TGI was over 100 µM.

The test system of the next assay is RPMI-8226 leukemia. In words: NCI anticancer screen, dose series, 48 h.
Compound `Cc1ccc(C(=O)O)cc1S(=O)(=O)Nn1cnc2ccc(S(=O)(=O)Nc3ccccc3C(=O)O)cc2c1=O` came in with a TGI of over 100 µM.

On to `Cc1ccc(Cl)c2[nH]c(-c3ccccc3)cc(=O)c12`, for which the TGI is over 100 µM.

Compound `CN(C)C(=O)O/N=C1/C(c2c(O)[nH]c3ccccc23)=Nc2ccccc21` returned a TGI of over 100 µM.

Turning to `O=C1/C(=C/c2ccccc2)N=C2Sc3c(nc[nH]c3=O)N12`, the TGI is over 100 µM.

With `COC(=O)c1ccccc1CC1Cc2ccc3c(c2C1=O)CCCC3` (stereo not given), the TGI was over 75.5 µM.

For `O=C1/C(=C\c2ccccc2)C(NC2CCCCC2)c2ccccc21` (stereo not given), the TGI is 2.42 µM.

As for `CCOC(=O)C1(C/C=C/CBr)Cc2ccccc2C1=O` (stereo not given), the TGI is 4.88 µM.

Compound `COc1ccc(COCCOCc2nc(C#N)c(N)o2)cc1` registered a TGI of over 100 µM.

`CC1(C)OC(=O)N(c2ccccc2)C12C=Cc1cc([N+](=O)[O-])cc([N+](=O)[O-])c1O2` (stereo not given) displayed a TGI of over 100 µM.

The next assay concerns SK-MEL-2 melanoma. In words: NCI anticancer screen, dose series, 48 h.
In turn, `Cc1ccc(C(=O)O)cc1S(=O)(=O)Nn1cnc2ccc(S(=O)(=O)Nc3ccccc3C(=O)O)cc2c1=O` yielded a TGI of over 100 µM.

`Cc1ccc(Cl)c2[nH]c(-c3ccccc3)cc(=O)c12` showed a TGI of over 100 µM.

Turning to `CN(C)C(=O)O/N=C1/C(c2c(O)[nH]c3ccccc23)=Nc2ccccc21`, the TGI amounted to 33.4 µM.

Turning to `O=C1/C(=C/c2ccccc2)N=C2Sc3c(nc[nH]c3=O)N12`, the TGI is over 100 µM.

For the compound `COC(=O)c1ccccc1CC1Cc2ccc3c(c2C1=O)CCCC3` (stereo not given), the TGI is over 76.3 µM.

As for `O=C1/C(=C\c2ccccc2)C(NC2CCCCC2)c2ccccc21` (stereo not given), the TGI amounted to 5.25 µM.

On to `CCOC(=O)C1(C/C=C/CBr)Cc2ccccc2C1=O` (stereo not given), for which the TGI worked out at 6.13 µM.

Compound `COc1ccc(COCCOCc2nc(C#N)c(N)o2)cc1` displayed a TGI of over 100 µM.

`CC1(C)OC(=O)N(c2ccccc2)C12C=Cc1cc([N+](=O)[O-])cc([N+](=O)[O-])c1O2` (stereo not given) showed a TGI of over 100 µM.

In another assay the test system is SF-295 CNS. In words: NCI anticancer screen, dose series, 48 h.
Take `Cc1ccc(C(=O)O)cc1S(=O)(=O)Nn1cnc2ccc(S(=O)(=O)Nc3ccccc3C(=O)O)cc2c1=O`: the TGI is over 100 µM.

In turn, `Cc1ccc(Cl)c2[nH]c(-c3ccccc3)cc(=O)c12` registered a TGI of over 100 µM.

Take `CN(C)C(=O)O/N=C1/C(c2c(O)[nH]c3ccccc23)=Nc2ccccc21`: the TGI came to 68.8 µM.

As to `O=C1/C(=C/c2ccccc2)N=C2Sc3c(nc[nH]c3=O)N12`, the TGI is over 100 µM.

In the case of `COC(=O)c1ccccc1CC1Cc2ccc3c(c2C1=O)CCCC3` (stereo not given), the TGI was over 100 µM.

`O=C1/C(=C\c2ccccc2)C(NC2CCCCC2)c2ccccc21` (stereo not given) displayed a TGI of 33.5 µM.

Consider `CCOC(=O)C1(C/C=C/CBr)Cc2ccccc2C1=O` (stereo not given), for which the TGI was 22.1 µM.

`COc1ccc(COCCOCc2nc(C#N)c(N)o2)cc1`: the TGI is over 100 µM.

Turning to `CC1(C)OC(=O)N(c2ccccc2)C12C=Cc1cc([N+](=O)[O-])cc([N+](=O)[O-])c1O2` (stereo not given), the TGI was over 100 µM.

A further assay deals with SK-OV-3 ovarian. Put plainly: NCI anticancer screen, dose series, 48 h.
In turn, `Cc1ccc(C(=O)O)cc1S(=O)(=O)Nn1cnc2ccc(S(=O)(=O)Nc3ccccc3C(=O)O)cc2c1=O` came in with a TGI of over 100 µM.

Regarding `Cc1ccc(Cl)c2[nH]c(-c3ccccc3)cc(=O)c12`, the TGI was over 100 µM.

The compound `CN(C)C(=O)O/N=C1/C(c2c(O)[nH]c3ccccc23)=Nc2ccccc21` returned a TGI of 48.8 µM.

Take `O=C1/C(=C/c2ccccc2)N=C2Sc3c(nc[nH]c3=O)N12`: the TGI was over 100 µM.

`COC(=O)c1ccccc1CC1Cc2ccc3c(c2C1=O)CCCC3` (stereo not given) gave a TGI of over 100 µM.

As to `O=C1/C(=C\c2ccccc2)C(NC2CCCCC2)c2ccccc21` (stereo not given), the TGI amounted to 27 µM.

As for `CCOC(=O)C1(C/C=C/CBr)Cc2ccccc2C1=O` (stereo not given), the TGI turned out to be 21.5 µM.

`COc1ccc(COCCOCc2nc(C#N)c(N)o2)cc1`: the TGI was over 100 µM.

The compound `CC1(C)OC(=O)N(c2ccccc2)C12C=Cc1cc([N+](=O)[O-])cc([N+](=O)[O-])c1O2` (stereo not given) yielded a TGI of over 100 µM.

Another assay deals with NCI-H522 lung. Put plainly: NCI anticancer screen, dose series, 48 h.
As to `Cc1ccc(C(=O)O)cc1S(=O)(=O)Nn1cnc2ccc(S(=O)(=O)Nc3ccccc3C(=O)O)cc2c1=O`, the TGI is over 100 µM.

As for `Cc1ccc(Cl)c2[nH]c(-c3ccccc3)cc(=O)c12`, the TGI was over 100 µM.

In the case of `CN(C)C(=O)O/N=C1/C(c2c(O)[nH]c3ccccc23)=Nc2ccccc21`, the TGI came out at 75.3 µM.

Consider `O=C1/C(=C/c2ccccc2)N=C2Sc3c(nc[nH]c3=O)N12`, for which the TGI is over 100 µM.

With `COC(=O)c1ccccc1CC1Cc2ccc3c(c2C1=O)CCCC3` (stereo not given), the TGI was over 100 µM.

For `O=C1/C(=C\c2ccccc2)C(NC2CCCCC2)c2ccccc21` (stereo not given), the TGI amounted to 2.05 µM.

In turn, `CCOC(=O)C1(C/C=C/CBr)Cc2ccccc2C1=O` (stereo not given) gave a TGI of 3.11 µM.

The compound `COc1ccc(COCCOCc2nc(C#N)c(N)o2)cc1` had a TGI of 75.8 µM.

As to `CC1(C)OC(=O)N(c2ccccc2)C12C=Cc1cc([N+](=O)[O-])cc([N+](=O)[O-])c1O2` (stereo not given), the TGI was over 100 µM.

A further assay has as its system CCRF-CEM leukemia. In words: NCI anticancer screen, dose series, 48 h.
`Cc1ccc(C(=O)O)cc1S(=O)(=O)Nn1cnc2ccc(S(=O)(=O)Nc3ccccc3C(=O)O)cc2c1=O`: the TGI is over 100 µM.

`Cc1ccc(Cl)c2[nH]c(-c3ccccc3)cc(=O)c12` gave a TGI of over 100 µM.

With `CN(C)C(=O)O/N=C1/C(c2c(O)[nH]c3ccccc23)=Nc2ccccc21`, the TGI is over 100 µM.

Take `O=C1/C(=C/c2ccccc2)N=C2Sc3c(nc[nH]c3=O)N12`: the TGI was over 100 µM.

Regarding `COC(=O)c1ccccc1CC1Cc2ccc3c(c2C1=O)CCCC3` (stereo not given), the TGI is over 86.5 µM.

Take `O=C1/C(=C\c2ccccc2)C(NC2CCCCC2)c2ccccc21` (stereo not given): the TGI worked out at 0.294 µM.

Regarding `CCOC(=O)C1(C/C=C/CBr)Cc2ccccc2C1=O` (stereo not given), the TGI is 5.36 µM.

In turn, `COc1ccc(COCCOCc2nc(C#N)c(N)o2)cc1` came in with a TGI of over 100 µM.

In the case of `CC1(C)OC(=O)N(c2ccccc2)C12C=Cc1cc([N+](=O)[O-])cc([N+](=O)[O-])c1O2` (stereo not given), the TGI was over 100 µM.
